Consider 4 molecules from ChEMBL document CHEMBL1201862, “PubChem BioAssay data set” (2004).

Molecules are shown by their SMILES.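 Test compounds were applied to cells in 96-well plates for 48 hours at 5 doses. GI50: concentration for 50% inhibition of growth.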 The source made the active and inactive calls. No stated cut-off is given here; in the data, active = GI50 up to about 1.1 µM and inactive = higher.

Some test systems named below: KM12; NCI-H226; U-251; OVCAR-4; OVCAR-8; LOX IMVI; K562; HL-60; SF-268; SN12C; SNB-75; UACC-62; EKVX; SK-MEL-28; CAKI-1; UO-31; A549; Malme-3M; SF-295; SK-MEL-5.
Assay in all cases: DTP human tumour cell line panel, 48 h

A word on the GI50: it is the concentration giving 50% growth inhibition. For `CC(C)C1NC(=O)CC(c2ccccc2)N(N=O)C1c1ccccc1` (stereo not given), the GI50 with KM12, with NCI-H226, with U-251, with OVCAR-4, with OVCAR-8 and with LOX IMVI was > 100 µM (inactive) in each case. Moreover, the GI50 was 71.4 µM (inactive) in the assay on K562; 74.5 µM (inactive) with HL-60; > 100 µM (inactive) with SF-268; > 100 µM (inactive) with SN12C; > 100 µM (inactive) in the assay on SNB-75; > 100 µM (inactive) in the assay on UACC-62. For the same molecule, the GI50 in the assay with EKVX, with SK-MEL-28, with CAKI-1, in the assay on UO-31, with A549 and in the assay with Malme-3M was > 100 µM (inactive) each time. The GI50 in the assay on SF-295 is > 100 µM (inactive); in the assay on SK-MEL-5, > 83.6 µM (inactive).

For `CO/C=C1\OC(=O)C=C1OC`, the GI50 in the assay on KM12 is > 100 µM (inactive); in the assay with NCI-H226 it was > 100 µM (inactive); in the assay on U-251 it was > 31.6 µM (inactive); with OVCAR-4, > 100 µM (inactive); in the assay on OVCAR-8, > 100 µM (inactive); in the assay on LOX IMVI, > 100 µM (inactive). The GI50 in the assay with K562, in the assay with HL-60, in the assay with SF-268, in the assay on SN12C, in the assay on SNB-75 and with UACC-62 was > 100 µM (inactive) each time. For the same molecule, the GI50 in the assay with EKVX, in the assay with SK-MEL-28, in the assay on CAKI-1, with UO-31, with A549 and with Malme-3M was > 100 µM (inactive) in each case. Moreover, the GI50 with SF-295 and in the assay with SK-MEL-5 was > 100 µM (inactive) each time.

Regarding `CC1(C)COC(/C=C/C2=NC(C)(C)CO2)=N1`, the GI50 was 13.9 µM (inactive) with KM12; 20.9 µM (inactive) in the assay with NCI-H226; 21.1 µM (inactive) in the assay on U-251; 24.7 µM (inactive) in the assay with OVCAR-4; 20.3 µM (inactive) in the assay on OVCAR-8; 3.25 µM (inactive) in the assay on LOX IMVI. Besides, the GI50 with K562 is 18.2 µM (inactive); with HL-60, 20.1 µM (inactive); in the assay with SF-268, 24.3 µM (inactive); in the assay on SN12C it was 1.95 µM (inactive); in the assay on SNB-75, > 100 µM (inactive); with UACC-62 it was 15.1 µM (inactive). Also, the GI50 was 16.9 µM (inactive) in the assay with EKVX; 17.6 µM (inactive) in the assay on SK-MEL-28; 5.89 µM (inactive) with CAKI-1; 18.6 µM (inactive) in the assay on UO-31; 42.9 µM (inactive) in the assay with A549; 17.5 µM (inactive) with Malme-3M. Further, the GI50 was 42.2 µM (inactive) in the assay on SF-295 and 14 µM (inactive) in the assay on SK-MEL-5.

As for `Cc1c2cc[n+](Cc3ccc(I)cc3)cc2c(C)c2c1[nH]c1ccccc12`, the concentration for 50% growth inhibition (GI50) was 0.402 µM (active) with KM12; 0.552 µM (active) with NCI-H226; 0.21 µM (active) in the assay with U-251; 0.546 µM (active) in the assay with OVCAR-4; 0.685 µM (active) with OVCAR-8; 2.16 µM (inactive) in the assay on LOX IMVI. For the same molecule, the GI50 in the assay with K562 was 0.643 µM (active); with HL-60, 0.488 µM (active); in the assay with SF-268, 0.495 µM (active); in the assay with SN12C it was 0.548 µM (active); in the assay on SNB-75 it was 0.0914 µM (active); in the assay on UACC-62, 1.12 µM (active). Moreover, the GI50 in the assay on EKVX is 1.19 µM (inactive); with SK-MEL-28, 1.45 µM (inactive); with CAKI-1, 0.714 µM (active); in the assay on UO-31, 3.14 µM (inactive); with A549, 0.849 µM (active); in the assay on Malme-3M, 0.582 µM (active). Also, the concentration for 50% growth inhibition (GI50) in the assay on SF-295 was 0.296 µM (active); in the assay on SK-MEL-5, 0.49 µM (active).
